Test results published in patent US9446039B2, “Aminoheteroaryl compounds as MTH1 inhibitors” (CEMM—FORSCHUNGSZENTRUM FÜR MOLEKULARE MEDIZIN GMBH, priority 2012, dated 2016).

Legend:
Type in all cases: binding
[1] = target: T1, SW480 colon carcinoma cells lysate proteins (Homo sapiens, UniProt O43175); conditions: PreyGene PHGDH
T1 sequence (O43175 1-533): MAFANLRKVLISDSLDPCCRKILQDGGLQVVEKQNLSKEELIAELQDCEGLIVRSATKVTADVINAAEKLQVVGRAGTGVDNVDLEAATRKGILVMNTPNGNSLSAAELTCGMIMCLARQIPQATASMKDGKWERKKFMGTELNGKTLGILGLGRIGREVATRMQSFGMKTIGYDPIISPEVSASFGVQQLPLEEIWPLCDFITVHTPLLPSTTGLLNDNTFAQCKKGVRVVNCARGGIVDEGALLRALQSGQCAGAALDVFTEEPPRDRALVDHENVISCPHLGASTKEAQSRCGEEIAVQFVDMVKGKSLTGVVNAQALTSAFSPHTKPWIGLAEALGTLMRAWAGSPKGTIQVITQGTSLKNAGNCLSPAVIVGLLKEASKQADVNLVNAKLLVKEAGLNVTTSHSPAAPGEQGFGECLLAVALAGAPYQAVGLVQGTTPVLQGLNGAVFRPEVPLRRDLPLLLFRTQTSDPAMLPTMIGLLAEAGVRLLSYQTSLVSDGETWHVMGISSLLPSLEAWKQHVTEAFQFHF

[2] = target: SW480 colon carcinoma cells lysate proteins (Homo sapiens, UniProt P15559); conditions: PreyGene NQO1
Chain of SW480 colon carcinoma cells lysate proteins (Homo sapiens, UniProt P15559) (P15559 whole entry): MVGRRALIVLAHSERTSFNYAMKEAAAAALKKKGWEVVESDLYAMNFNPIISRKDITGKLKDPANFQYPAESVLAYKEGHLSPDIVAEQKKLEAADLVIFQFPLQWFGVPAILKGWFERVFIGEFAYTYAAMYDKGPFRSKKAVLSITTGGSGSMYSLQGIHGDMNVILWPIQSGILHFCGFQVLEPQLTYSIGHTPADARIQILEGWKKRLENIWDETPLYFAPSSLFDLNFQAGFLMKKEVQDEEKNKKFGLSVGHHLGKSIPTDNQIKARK

[3] = target: SW480 colon carcinoma cells lysate proteins (Homo sapiens, UniProt P28070); conditions: PreyGene PSMB4
Chain of SW480 colon carcinoma cells lysate proteins (Homo sapiens, UniProt P28070) (P28070 46-264): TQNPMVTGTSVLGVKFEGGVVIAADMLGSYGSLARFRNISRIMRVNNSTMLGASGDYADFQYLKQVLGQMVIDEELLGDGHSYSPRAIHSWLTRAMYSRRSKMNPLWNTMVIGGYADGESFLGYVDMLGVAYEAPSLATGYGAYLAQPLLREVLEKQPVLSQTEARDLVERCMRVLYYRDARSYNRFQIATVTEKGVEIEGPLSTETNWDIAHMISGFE

[4] = target: SW480 colon carcinoma cells lysate proteins (Homo sapiens, UniProt P62861); conditions: PreyGene FAU
[5] = target: SW480 colon carcinoma cells lysate proteins (Homo sapiens, UniProt Q13576); conditions: PreyGene IQGAP2
Chain of SW480 colon carcinoma cells lysate proteins (Homo sapiens, UniProt Q13576) (Q13576 whole entry): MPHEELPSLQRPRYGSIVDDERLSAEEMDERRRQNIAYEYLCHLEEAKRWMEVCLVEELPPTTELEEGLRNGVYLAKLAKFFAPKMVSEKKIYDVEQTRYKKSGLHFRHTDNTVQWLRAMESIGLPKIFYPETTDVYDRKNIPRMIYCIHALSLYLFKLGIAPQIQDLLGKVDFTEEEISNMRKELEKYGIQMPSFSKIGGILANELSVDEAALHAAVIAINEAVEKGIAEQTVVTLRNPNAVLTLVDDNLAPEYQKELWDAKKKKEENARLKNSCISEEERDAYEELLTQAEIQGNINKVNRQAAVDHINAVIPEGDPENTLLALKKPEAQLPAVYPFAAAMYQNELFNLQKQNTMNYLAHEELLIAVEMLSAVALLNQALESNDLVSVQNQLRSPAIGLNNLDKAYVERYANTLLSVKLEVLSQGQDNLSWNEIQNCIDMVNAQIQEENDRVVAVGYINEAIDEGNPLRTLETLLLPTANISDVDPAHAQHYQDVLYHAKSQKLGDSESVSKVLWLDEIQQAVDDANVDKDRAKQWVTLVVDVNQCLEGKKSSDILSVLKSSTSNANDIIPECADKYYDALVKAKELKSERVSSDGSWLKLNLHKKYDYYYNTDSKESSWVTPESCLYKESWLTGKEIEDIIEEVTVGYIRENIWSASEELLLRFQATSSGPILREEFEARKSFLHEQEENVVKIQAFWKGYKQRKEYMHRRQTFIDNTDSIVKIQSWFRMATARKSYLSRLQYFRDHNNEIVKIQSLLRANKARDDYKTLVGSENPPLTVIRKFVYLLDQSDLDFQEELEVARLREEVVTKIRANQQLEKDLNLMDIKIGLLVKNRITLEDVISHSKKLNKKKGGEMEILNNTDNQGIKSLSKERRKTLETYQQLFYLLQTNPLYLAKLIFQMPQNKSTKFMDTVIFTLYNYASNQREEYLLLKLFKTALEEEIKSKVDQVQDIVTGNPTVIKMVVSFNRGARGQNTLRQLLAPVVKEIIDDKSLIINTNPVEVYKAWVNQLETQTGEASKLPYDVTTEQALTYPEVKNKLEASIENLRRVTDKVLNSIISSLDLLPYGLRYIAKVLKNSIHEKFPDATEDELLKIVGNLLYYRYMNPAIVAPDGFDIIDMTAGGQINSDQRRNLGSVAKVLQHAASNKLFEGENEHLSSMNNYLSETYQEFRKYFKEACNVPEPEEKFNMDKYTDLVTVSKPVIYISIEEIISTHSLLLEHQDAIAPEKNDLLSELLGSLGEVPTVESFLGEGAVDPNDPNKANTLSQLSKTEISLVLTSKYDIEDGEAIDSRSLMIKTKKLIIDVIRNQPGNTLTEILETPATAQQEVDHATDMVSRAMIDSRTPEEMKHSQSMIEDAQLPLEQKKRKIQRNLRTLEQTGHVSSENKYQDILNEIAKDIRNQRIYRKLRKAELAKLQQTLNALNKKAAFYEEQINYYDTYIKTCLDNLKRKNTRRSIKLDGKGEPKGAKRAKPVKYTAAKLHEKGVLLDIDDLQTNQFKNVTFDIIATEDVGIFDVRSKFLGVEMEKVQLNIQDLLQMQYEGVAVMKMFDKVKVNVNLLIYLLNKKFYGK

[6] = target: T2, SW480 colon carcinoma cells lysate proteins (Homo sapiens, UniProt Q8NFT6); conditions: PreyGene DBF4B
T2 sequence (Q8NFT6 1-615): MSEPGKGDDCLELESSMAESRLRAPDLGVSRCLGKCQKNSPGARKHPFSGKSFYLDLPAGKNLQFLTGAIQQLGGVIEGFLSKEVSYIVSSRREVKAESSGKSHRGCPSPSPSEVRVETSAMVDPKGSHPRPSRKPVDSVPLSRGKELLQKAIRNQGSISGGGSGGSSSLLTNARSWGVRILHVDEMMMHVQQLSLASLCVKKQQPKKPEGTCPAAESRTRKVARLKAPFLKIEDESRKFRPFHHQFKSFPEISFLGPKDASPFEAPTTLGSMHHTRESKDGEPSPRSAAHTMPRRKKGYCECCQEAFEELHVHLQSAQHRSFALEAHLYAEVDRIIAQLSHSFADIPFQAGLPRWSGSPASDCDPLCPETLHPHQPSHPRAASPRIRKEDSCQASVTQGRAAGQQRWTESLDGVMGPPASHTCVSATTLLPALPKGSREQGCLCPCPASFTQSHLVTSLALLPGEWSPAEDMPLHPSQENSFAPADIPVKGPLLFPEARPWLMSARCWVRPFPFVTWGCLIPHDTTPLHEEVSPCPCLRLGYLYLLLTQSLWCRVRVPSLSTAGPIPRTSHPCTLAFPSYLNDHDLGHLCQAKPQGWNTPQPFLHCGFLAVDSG

[7] = target: SW480 colon carcinoma cells lysate proteins (Homo sapiens, UniProt Q92616); conditions: PreyGene GCN1L1; SW480 cells
Chain of SW480 colon carcinoma cells lysate proteins (Homo sapiens, UniProt Q92616) (Q92616 whole entry): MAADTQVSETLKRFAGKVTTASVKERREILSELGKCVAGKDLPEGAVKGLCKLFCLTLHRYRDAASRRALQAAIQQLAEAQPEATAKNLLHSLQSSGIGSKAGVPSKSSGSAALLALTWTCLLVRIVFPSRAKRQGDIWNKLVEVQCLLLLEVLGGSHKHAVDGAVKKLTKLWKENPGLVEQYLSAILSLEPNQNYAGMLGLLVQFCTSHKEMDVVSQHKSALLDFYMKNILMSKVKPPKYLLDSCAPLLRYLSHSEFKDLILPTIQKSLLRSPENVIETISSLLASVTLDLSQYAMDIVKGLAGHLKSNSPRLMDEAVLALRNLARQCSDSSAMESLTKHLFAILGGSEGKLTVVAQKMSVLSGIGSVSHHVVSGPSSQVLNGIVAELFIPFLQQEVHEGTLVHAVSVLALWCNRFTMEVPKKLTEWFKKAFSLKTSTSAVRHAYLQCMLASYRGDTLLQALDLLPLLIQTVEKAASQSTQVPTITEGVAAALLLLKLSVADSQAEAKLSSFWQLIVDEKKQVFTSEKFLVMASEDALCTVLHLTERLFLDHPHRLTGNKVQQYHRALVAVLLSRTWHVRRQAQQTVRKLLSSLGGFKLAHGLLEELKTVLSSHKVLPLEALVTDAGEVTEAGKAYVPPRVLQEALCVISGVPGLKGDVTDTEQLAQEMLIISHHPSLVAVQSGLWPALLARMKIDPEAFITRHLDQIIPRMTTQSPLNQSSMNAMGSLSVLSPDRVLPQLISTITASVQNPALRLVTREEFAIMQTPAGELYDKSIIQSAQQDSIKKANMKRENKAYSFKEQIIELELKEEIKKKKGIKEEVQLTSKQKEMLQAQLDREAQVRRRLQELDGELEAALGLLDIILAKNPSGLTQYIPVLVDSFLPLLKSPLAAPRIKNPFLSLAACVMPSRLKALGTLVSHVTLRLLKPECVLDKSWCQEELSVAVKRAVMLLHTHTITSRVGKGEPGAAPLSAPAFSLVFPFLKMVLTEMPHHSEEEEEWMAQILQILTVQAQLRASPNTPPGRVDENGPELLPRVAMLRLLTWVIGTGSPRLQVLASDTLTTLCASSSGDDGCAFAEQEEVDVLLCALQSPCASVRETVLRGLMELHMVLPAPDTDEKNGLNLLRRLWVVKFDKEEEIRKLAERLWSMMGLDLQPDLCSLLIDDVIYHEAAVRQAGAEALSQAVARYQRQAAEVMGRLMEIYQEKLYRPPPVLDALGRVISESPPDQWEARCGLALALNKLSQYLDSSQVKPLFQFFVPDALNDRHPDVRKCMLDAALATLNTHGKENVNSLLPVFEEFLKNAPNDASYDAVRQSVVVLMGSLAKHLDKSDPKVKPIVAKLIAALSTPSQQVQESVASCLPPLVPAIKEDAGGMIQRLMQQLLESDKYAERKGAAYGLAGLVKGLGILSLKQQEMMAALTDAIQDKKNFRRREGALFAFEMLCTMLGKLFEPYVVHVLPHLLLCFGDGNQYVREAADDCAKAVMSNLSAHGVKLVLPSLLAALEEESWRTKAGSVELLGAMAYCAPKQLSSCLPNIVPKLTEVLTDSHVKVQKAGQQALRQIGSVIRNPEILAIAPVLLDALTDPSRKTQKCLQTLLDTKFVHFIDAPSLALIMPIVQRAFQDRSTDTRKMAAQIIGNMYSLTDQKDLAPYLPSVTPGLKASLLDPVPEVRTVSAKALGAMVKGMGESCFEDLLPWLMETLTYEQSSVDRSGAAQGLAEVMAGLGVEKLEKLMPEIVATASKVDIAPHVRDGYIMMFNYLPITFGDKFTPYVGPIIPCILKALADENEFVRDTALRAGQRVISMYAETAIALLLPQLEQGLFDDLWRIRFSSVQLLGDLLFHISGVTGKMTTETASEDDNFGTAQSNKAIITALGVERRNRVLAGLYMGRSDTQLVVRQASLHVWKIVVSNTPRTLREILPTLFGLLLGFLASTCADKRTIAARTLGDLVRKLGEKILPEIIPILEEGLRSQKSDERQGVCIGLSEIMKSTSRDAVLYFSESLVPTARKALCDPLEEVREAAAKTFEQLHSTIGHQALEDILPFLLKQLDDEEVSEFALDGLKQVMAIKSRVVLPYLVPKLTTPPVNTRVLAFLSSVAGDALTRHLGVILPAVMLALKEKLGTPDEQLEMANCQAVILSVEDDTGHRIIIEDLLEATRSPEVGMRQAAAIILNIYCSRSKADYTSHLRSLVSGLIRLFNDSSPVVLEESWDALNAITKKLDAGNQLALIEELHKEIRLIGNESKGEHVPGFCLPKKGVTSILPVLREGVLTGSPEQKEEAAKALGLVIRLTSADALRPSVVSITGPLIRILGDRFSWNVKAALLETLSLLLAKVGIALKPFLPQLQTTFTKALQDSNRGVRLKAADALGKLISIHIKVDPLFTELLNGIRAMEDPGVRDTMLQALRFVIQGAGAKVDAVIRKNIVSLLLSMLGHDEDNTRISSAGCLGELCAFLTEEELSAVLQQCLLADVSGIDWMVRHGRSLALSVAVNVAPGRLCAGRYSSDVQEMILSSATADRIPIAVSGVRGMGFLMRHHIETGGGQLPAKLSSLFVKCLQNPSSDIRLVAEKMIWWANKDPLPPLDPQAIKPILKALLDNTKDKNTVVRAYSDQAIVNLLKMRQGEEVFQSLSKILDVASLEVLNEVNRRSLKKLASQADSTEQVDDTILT

[8] = target: SW480 colon carcinoma cells lysate proteins (Homo sapiens, UniProt Q9UBR2); conditions: PreyGene CTSZ
Chain of SW480 colon carcinoma cells lysate proteins (Homo sapiens, UniProt Q9UBR2) (Q9UBR2 62-303): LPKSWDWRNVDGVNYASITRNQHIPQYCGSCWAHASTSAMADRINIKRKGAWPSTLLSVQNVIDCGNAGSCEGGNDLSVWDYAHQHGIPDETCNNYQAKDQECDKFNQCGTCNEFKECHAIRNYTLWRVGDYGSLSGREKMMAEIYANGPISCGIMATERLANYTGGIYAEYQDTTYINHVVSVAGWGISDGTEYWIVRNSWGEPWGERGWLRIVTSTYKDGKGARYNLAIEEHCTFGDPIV

[9] = target: T3, SW480 colon carcinoma cells lysate proteins (Homo sapiens, UniProt Q9Y617); conditions: PreyGene PSAT1
T3 sequence (Q9Y617 1-370): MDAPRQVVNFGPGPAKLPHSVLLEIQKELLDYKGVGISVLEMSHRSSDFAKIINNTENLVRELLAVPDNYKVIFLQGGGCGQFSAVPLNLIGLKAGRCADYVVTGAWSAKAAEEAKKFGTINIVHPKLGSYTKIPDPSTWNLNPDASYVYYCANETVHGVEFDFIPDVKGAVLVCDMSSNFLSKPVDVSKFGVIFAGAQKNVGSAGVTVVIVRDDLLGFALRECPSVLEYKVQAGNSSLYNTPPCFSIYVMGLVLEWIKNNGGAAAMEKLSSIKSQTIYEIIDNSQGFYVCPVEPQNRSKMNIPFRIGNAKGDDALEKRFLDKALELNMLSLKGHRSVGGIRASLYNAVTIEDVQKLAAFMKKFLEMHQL

C[C@H](Oc1cc(-c2cnn(C3CCNCC3)c2)cnc1N)c1c(Cl)ccc(F)c1Cl [(5)-crizotinib]
AvgP [1]: 0.4081 | SC.Exp. 1-1 [1]: 5 | SC.Exp. 1-2 [1]: 7 | SC.Exp. 2-1 [1]: 0 | SC.Exp. 2-2 [1]: 0 | Sum (SC.Exp.) [1]: 12 | AvgP [2]: 0.3104 | SC.Exp. 1-1 [2]: 2 | SC.Exp. 1-2 [2]: 1 | SC.Exp. 2-1 [2]: 0 | SC.Exp. 2-2 [2]: 0 | Sum (SC.Exp.) [2]: 3 | AvgP [3]: 0.1875 | SC.Exp. 1-1 [3]: 2 | SC.Exp. 1-2 [3]: 0 | SC.Exp. 2-1 [3]: 0 | SC.Exp. 2-2 [3]: 0 | Sum (SC.Exp.) [3]: 2 | AvgP [4]: 0.2109 | SC.Exp. 1-1 [4]: 2 | SC.Exp. 1-2 [4]: 4 | SC.Exp. 2-1 [4]: 0 | SC.Exp. 2-2 [4]: 2 | Sum (SC.Exp.) [4]: 8 | AvgP [5]: 0.4584 | SC.Exp. 1-1 [5]: 9 | SC.Exp. 1-2 [5]: 9 | SC.Exp. 2-1 [5]: 0 | SC.Exp. 2-2 [5]: 0 | Sum (SC.Exp.) [5]: 18 | AvgP [6]: 0.2 | SC.Exp. 1-1 [6]: 0 | SC.Exp. 1-2 [6]: 0 | SC.Exp. 2-1 [6]: 2 | SC.Exp. 2-2 [6]: 0 | Sum (SC.Exp.) [6]: 2 | AvgP [7]: 0 | SC.Exp. 1-1 [7]: 37 | SC.Exp. 1-2 [7]: 34 | SC.Exp. 2-1 [7]: 37 | SC.Exp. 2-2 [7]: 37 | SC.Exp. Sum [7]: 145 | AvgP [8]: 0.3217 | SC.Exp. 1-1 [8]: 2 | SC.Exp. 1-2 [8]: 2 | SC.Exp. 2-1 [8]: 0 | SC.Exp. 2-2 [8]: 0 | Sum (SC.Exp.) [8]: 4 | AvgP [9]: 0.3916 | SC.Exp. 1-1 [9]: 3 | SC.Exp. 1-2 [9]: 3 | SC.Exp. 2-1 [9]: 0 | SC.Exp. 2-2 [9]: 0 | Sum (SC.Exp.) [9]: 6
